The values that follow come from patent US20250296959A1, “B7-H3 TARGETING PEPTIDES AND CONSTRUCTS THEREOF” (Mariana Oncology Inc., priority 2024, published 2025).

The target of this experiment is T1, human 4lg B7-H3 (Homo sapiens, UniProt Q5ZPR3).
T1 sequence (Q5ZPR3 29-534): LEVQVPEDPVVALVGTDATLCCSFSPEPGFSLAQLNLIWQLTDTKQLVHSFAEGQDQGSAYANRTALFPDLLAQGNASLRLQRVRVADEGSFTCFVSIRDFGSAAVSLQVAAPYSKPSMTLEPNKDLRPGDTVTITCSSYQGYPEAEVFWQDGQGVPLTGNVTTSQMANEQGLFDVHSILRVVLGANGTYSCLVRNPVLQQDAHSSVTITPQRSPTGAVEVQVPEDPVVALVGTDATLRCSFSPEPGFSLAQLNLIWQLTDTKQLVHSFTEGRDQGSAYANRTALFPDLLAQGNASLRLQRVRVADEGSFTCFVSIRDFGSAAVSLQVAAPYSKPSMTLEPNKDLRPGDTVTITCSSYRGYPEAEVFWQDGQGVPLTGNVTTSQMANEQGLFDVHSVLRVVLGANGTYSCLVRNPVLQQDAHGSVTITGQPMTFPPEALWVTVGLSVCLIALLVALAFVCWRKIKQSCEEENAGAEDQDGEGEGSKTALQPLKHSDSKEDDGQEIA
Nature of the experiment: Affinity determination by surface plasmon resonance (SPR) to 4Ig B7-H3. Particulars: 4Ig B7-H3.

The mark [1] stands for this setting: SPR KD—25° C., 25° C. flow cell temperature.
[2] abbreviates: SPR KD—37° C., 37° C. flow cell temperature.

Each structure is given as a SMILES string. Starred links: 1 amine or outer side, 2 acyl side, 3 side chain; linkers in the order of their positions; H or OH if unused. Positions of bridges follow the written chain, without caps; N, C: chain ends. Non-standard residues stand in square brackets, D forms with d. Residues, ends and D or L forms follow the SMILES beside them. Groups on a side chain read outwards from the residue. *: point of attachment. Ala(piperidin-4-yl) = O=C([C@H](CC1CCN([*:3])CC1)N[*:1])[*:2]; DOTA = O=C(O)CN1CCN(CC(=O)O)CCN(CC(=O)*)CCN(CC(=O)O)CC1; Trp(1-CH2COOH) = N[C@@H](Cc1cn(CC(=O)O)c2ccccc12)C(=O)O; Phe(4-NHCONH2) = NC(=O)Nc1ccc(C[C@H](N)C(=O)O)cc1; Trp(5-F) = N[C@@H](Cc1c[nH]c2ccc(F)cc12)C(=O)O; X1 = C[C@@H](c1ccccc1)[C@H](N[*:1])C(=O)[*:2]; γGlu = O=C(O)[C@H](CCC(=O)[*:2])N[*:1]; Ala(4-THP) = N[C@@H](CC1CCOCC1)C(=O)O; Val(3-OH) = CC(C)(O)[C@H](N)C(=O)O; pGlu = O=C1CC[C@@H](C(=O)O)N1; PEG4 = NCCOCCOCCOCCOCCC(=O)O; Tle = CC(C)(C)[C@H](N)C(=O)O; hLeu = CC(C)CC[C@H](N)C(=O)O; Nva = CCC[C@H](N)C(=O)O; AEA = NCCOCC(=O)O

On to `CCC[C@@H]1NC(=O)[C@H](CC(=O)O)NC(=O)[C@H](Cc2ccc(O)cc2)NC(=O)[C@H](CCCCN)NC(=O)CNC(=O)[C@H](C(C)C)NC(=O)[C@@H](NC(=O)[C@H](Cc2ccc(O)cc2)NC(=O)[C@H](CCC(C)C)NC(C)=O)CSSC[C@@H](C(=O)N[C@@H](Cc2c[nH]c3ccc(F)cc23)C(=O)N[C@@H](Cc2ccccc2)C(=O)N[C@H](C(=O)N[C@H](CCCCNC(=O)CN2CCN(CC(=O)O)CCN(CC(=O)O)CCN(CC(=O)O)CC2)C(N)=O)[C@@H](C)O)NC(=O)[C@H](Cc2ccc(O)cc2)NC1=O` [compound 185, Ac-hLeu-Y-C-V-G-K-Y-D-Nva-Y-C-5FW-F-Thr-dLys(DOTA)-CONH2] (Ac-[hLeu]YCVGKYD[Nva]YC[Trp(5-F)]FT[dK](DOTA)-NH2; disulfide 3-11), for which, under setting [1], the Kd was in the range of 1 to 10 nM. Under setting [2], `CC(=O)N[C@@H](CCC(C)C)C(=O)N[C@@H](Cc1ccc(O)cc1)C(=O)N[C@H]1CSSC[C@@H](C(=O)N[C@@H](Cc2cn(CC(=O)O)c3ccccc23)C(=O)N[C@@H](Cc2ccccc2)C(=O)N[C@H](C(=O)N[C@H](CCCCNC(=O)CN2CCN(CC(=O)O)CCN(CC(=O)O)CCN(CC(=O)O)CC2)C(=O)O)C(C)(C)O)NC(=O)[C@H](Cc2ccc(O)cc2)NC(=O)[C@H](C(C)C)NC(=O)[C@H](CC(=O)O)NC(=O)[C@H](CC2CCOCC2)NC(=O)[C@H](CCCCN)NC(=O)CNC(=O)[C@H](C(C)(C)C)NC1=O` [compound 396, Ac-hLeu-Y-C-Tbg-G-K-ThpA-D-V-Y-C-Trp(CH2COOH)-F-hydroxyVal-dLys(DOTA)-COOH] (Ac-[hLeu]YC[Tle]GK[Ala(4-THP)]DVYC[Trp(1-CH2COOH)]F[Val(3-OH)][dK](DOTA)-OH; disulfide 3-11) displayed a Kd of 100 to 300 nM.

`CC(C)CC[C@H](NC(=O)[C@@H]1CCC(=O)N1)C(=O)N[C@@H](Cc1ccc(O)cc1)C(=O)N[C@H]1CSSC[C@@H](C(=O)N[C@@H](Cc2c[nH]c3ccc(F)cc23)C(=O)N[C@H](C(=O)N[C@H](C(=O)N[C@H](CCCCNC(=O)[C@H](CCC(=O)O)NC(=O)CN2CCN(CC(=O)O)CCN(CC(=O)O)CCN(CC(=O)O)CC2)C(=O)O)C(C)(C)O)[C@@H](C)c2ccccc2)NC(=O)[C@H](Cc2ccc(NC(N)=O)cc2)NC(=O)[C@H](C(C)C)NC(=O)[C@H](CC(=O)O)NC(=O)[C@H](CC2CCOCC2)NC(=O)[C@H](CC2CCNCC2)NC(=O)CNC(=O)[C@H](C(C)(C)C)NC1=O` [compound 505, Pyroglutamate-hLeu-Y-C-Tbg-G-PipAla-ThpA-D-V-Aph(Cbm)-C-5FW-[(2S, 3S)beta-Me-Phe]-hydroxyVal-dLys(Glu-DOTA)-COOH] ([pGlu][hLeu]YC[Tle]G[Ala(piperidin-4-yl)][Ala(4-THP)]DV[Phe(4-NHCONH2)]C[Trp(5-F)][X1][Val(3-OH)][dK]([Glu-DOTA])-OH; disulfide 4-12) came in with a Kd under setting [2] below 1 nM. Same read-out and setting: the value for `CC(C)CC[C@H](NC(=O)COCCNC(=O)CC[C@H](NC(=O)CN1CCN(CC(=O)O)CCN(CC(=O)O)CCN(CC(=O)O)CC1)C(=O)O)C(=O)N[C@@H](Cc1ccc(O)cc1)C(=O)N[C@H]1CSSC[C@@H](C(=O)N[C@@H](Cc2c[nH]c3ccc(F)cc23)C(=O)N[C@@H](Cc2ccccc2)C(=O)N[C@H](C(N)=O)C(C)(C)O)NC(=O)[C@H](Cc2ccc(O)cc2)NC(=O)[C@H](C(C)C)NC(=O)[C@H](CC(=O)O)NC(=O)[C@H](CC2CCOCC2)NC(=O)[C@H](CCCCN)NC(=O)CNC(=O)[C@H](C(C)(C)C)NC1=O` [compound 393, DOTA-gE-AEA-hLeu-Y-C-Tbg-G-K-ThpA-D-V-Y-C-5FW-F-hydroxyVal-CONH2] ({DOTA-γGlu-AEA}-[hLeu]YC[Tle]GK[Ala(4-THP)]DVYC[Trp(5-F)]F[Val(3-OH)]-NH2; disulfide 3-11) was 1 to 10 nM.

`CC(=O)N[C@@H](CCC(C)C)C(=O)N[C@@H](Cc1ccc(O)cc1)C(=O)N[C@H]1CSSC[C@@H](C(=O)N[C@@H](Cc2c[nH]c3ccc(F)cc23)C(=O)N[C@@H](Cc2ccccc2)C(=O)N2CCC[C@H]2C(=O)O)NC(=O)[C@H](Cc2ccc(O)cc2)NC(=O)[C@H](C(C)C)NC(=O)[C@H](CC(=O)O)NC(=O)[C@H](CC2CCOCC2)NC(=O)[C@H](CCCCNC(=O)CN2CCN(CC(=O)O)CCN(CC(=O)O)CCN(CC(=O)O)CC2)NC(=O)CNC(=O)[C@H](C(C)(C)C)NC1=O` [compound 305, Ac-hLeu-Y-C-Tbg-G-Lys(DOTA)-ThpA-D-V-Y-C-5FW-F-Pro-COOH] (Ac-[hLeu]YC[Tle]GK(DOTA)[Ala(4-THP)]DVYC[Trp(5-F)]FP-OH; disulfide 3-11): the Kd under setting [1] lay in the range of 100 to 300 nM. `CC(=O)N[C@@H](CCC(C)C)C(=O)N[C@@H](Cc1ccc(O)cc1)C(=O)N[C@H]1CSSC[C@@H](C(=O)N[C@@H](Cc2c[nH]c3ccc(F)cc23)C(=O)N[C@@H](Cc2ccccc2)C(=O)N[C@H](C(=O)N[C@H](CCC(=O)O)C(N)=O)C(C)(C)O)NC(=O)[C@H](Cc2ccc(O)cc2)NC(=O)[C@H](C(C)C)NC(=O)[C@H](CC(=O)O)NC(=O)[C@H](CC2CCOCC2)NC(=O)[C@H](CC2CCN(C(=O)CCOCCOCCOCCOCCNC(=O)CN3CCN(CC(=O)O)CCN(CC(=O)O)CCN(CC(=O)O)CC3)CC2)NC(=O)CNC(=O)[C@H](C(C)(C)C)NC1=O` [compound 409, Ac-hLeu-Y-C-Tbg-G-Pip(PEG4-DOTA)Ala-ThpA-D-V-Y-C-5FW-F-hydroxyVal-dGlu-CONH2] (Ac-[hLeu]YC[Tle]G[Ala(piperidin-4-yl)]([PEG4-DOTA])[Ala(4-THP)]DVYC[Trp(5-F)]F[Val(3-OH)][dE]-NH2; disulfide 3-11) displayed a Kd under setting [2] of 1 to 10 nM. As to `CC(=O)N[C@@H](CCC(C)C)C(=O)N[C@@H](Cc1ccc(O)cc1)C(=O)N[C@H]1CSSC[C@@H](C(=O)N[C@@H](Cc2c[nH]c3ccc(F)cc23)C(=O)N[C@@H](Cc2ccccc2)C(=O)N[C@H](C(=O)N[C@H](CCC(=O)O)C(N)=O)C(C)(C)O)NC(=O)[C@H](Cc2ccc(O)cc2)NC(=O)[C@H](C(C)C)NC(=O)[C@H](CC(=O)O)NC(=O)[C@H](CC2CCN(C(=O)CC[C@H](NC(=O)CN3CCN(CC(=O)O)CCN(CC(=O)O)CCN(CC(=O)O)CC3)C(=O)O)CC2)NC(=O)[C@H](CC2CCNCC2)NC(=O)CNC(=O)[C@H](C(C)(C)C)NC1=O` [compound 459, Ac-hLeu-Y-C-Tbg-G-PipAla-Pip(gE-DOTA)Ala-D-V-Y-C-5FW-F-hydroxyVal-dGlu-CONH2] (Ac-[hLeu]YC[Tle]G[Ala(piperidin-4-yl)][Ala(piperidin-4-yl)]([γGlu-DOTA])DVYC[Trp(5-F)]F[Val(3-OH)][dE]-NH2; disulfide 3-11), the Kd under setting [2] is below 1 nM. The compound `CC(=O)N[C@@H](CCC(C)C)C(=O)N[C@@H](Cc1ccc(O)cc1)C(=O)N[C@H]1CSSC[C@@H](C(=O)N[C@@H](Cc2c[nH]c3ccc(F)cc23)C(=O)N[C@@H](CC(C)C)C(=O)N[C@H](C(=O)N[C@H](CCCCNC(=O)CN2CCN(CC(=O)O)CCN(CC(=O)O)CCN(CC(=O)O)CC2)C(=O)O)[C@@H](C)O)NC(=O)[C@H](Cc2ccc(O)cc2)NC(=O)[C@H](C(C)C)NC(=O)[C@H](CC(=O)O)NC(=O)[C@H](CC2CCOCC2)NC(=O)[C@H](CCCCN)NC(=O)CNC(=O)[C@H](C(C)(C)C)NC1=O` [compound 334, Ac-hLeu-Y-C-Tbg-G-K-ThpA-D-V-Y-C-5FW-Leu-Thr-dLys(DOTA)-COOH] (Ac-[hLeu]YC[Tle]GK[Ala(4-THP)]DVYC[Trp(5-F)]LT[dK](DOTA)-OH; disulfide 3-11) came in with a Kd under setting [1] of 10 to 100 nM.

One may read the Kd as the concentration at which binding is half-saturated. Lower therefore signals higher affinity.
